Experimental data as given in PubChem BioAssay AID342 (DTP/NCI, 2004).
Values joined by “and” are separate entries in the source; they are usually repeats but may differ in a detail not shown here. Equal entries are not always repeated.

System: Swiss mice, Sarcoma 180 sc, mean tumor weight T/C
Experiment: NCI In Vivo Anticancer Drug Screen. Data for tumor model Sarcoma 180 (subcutaneous) in Swiss mice
Details: endpoint: mean tumor weight, higher = larger tumour
Outline: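 Mice bearing transplanted tumors were treated with compound, and survival or tumor size was measured. Values are expressed as the treated-group measurement (T) divided by the vehicle-treated control measurement (C).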

[1] = dose: 125.0 mg/kg/injection, schedule: Q01DX007 (ip), vehicle: other
[2] = dose: 125.0 mg/kg/injection, schedule: Q01DX007 (ip), vehicle: saline
[3] = dose: 2.5 mg/kg/injection, schedule: Q01DX007 (sc), vehicle: steriod suspending solution
[4] = dose: 5.0 mg/kg/injection, schedule: Q01DX007 (sc), vehicle: steriod suspending solution
[5] = dose: 500.0 mg/kg/injection, schedule: Q01DX007 (ip), vehicle: carboxymethylcellulose (CMC)

For `CC(=O)Nc1ccc(/C=N/Nc2ccc([N+](=O)[O-])cn2)cc1`, the T/C (dose: 45.0 mg/kg/injection, schedule: Q01DX007 (ip), vehicle: carboxymethylcellulose (CMC)) was 62 % of control, the T/C (dose: 67.0 mg/kg/injection, schedule: Q01DX007 (ip), vehicle: carboxymethylcellulose (CMC)) was 79 % of control and the T/C (dose: 83.3 mg/kg/injection, schedule: Q#A X014 (ip), vehicle: carboxymethylcellulose (CMC)) was 77 % of control. The T/C (dose: 83.3 mg/kg/injection, schedule: Q#A X014 (ip), vehicle: methylcellulose (MC)) was 61 % of control, the T/C (dose: 125.0 mg/kg/injection, schedule: Q#A X014 (ip), vehicle: carboxymethylcellulose (CMC)) was 22 % of control and the T/C (dose: 187.5 mg/kg/injection, schedule: Q#A X014 (ip), vehicle: carboxymethylcellulose (CMC)) was 48 % of control. For the same compound, the T/C (dose: 281.25 mg/kg/injection, schedule: Q#A X014 (ip), vehicle: carboxymethylcellulose (CMC)) was 47 % of control.
In the case of `Cn1cc(NC(=O)c2cc(NC(=O)c3cc(NC=O)cn3C)cn2C)cc1C(=O)NCCC(=N)N`, the T/C (dose: 20.0 mg/kg/injection, schedule: Q01DX007 (sc), vehicle: water) is reported as 80 % of control, the T/C (dose: 25.0 mg/kg/injection, schedule: Q01DX007 (sc), vehicle: water) is reported as 77 % of control and the T/C (dose: 40.0 mg/kg/injection, schedule: Q01DX007 (sc), vehicle: water) is reported as 92 % of control. The T/C (dose: 50.0 mg/kg/injection, schedule: Q01DX007 (sc), vehicle: water) was 64 % of control and the T/C (dose: 75.0 mg/kg/injection, schedule: Q01DX007 (sc), vehicle: water) was 71 % of control.
`O=C(O)C(=O)c1ccc(-c2ccccc2)cc1` was tested, and the T/C (dose: 4.0 mg/kg/injection, schedule: Q01DX007 (ip), vehicle: carboxymethylcellulose (CMC)) was 83 % of control, the T/C (dose: 8.0 mg/kg/injection, schedule: Q01DX007 (ip), vehicle: carboxymethylcellulose (CMC)) was 106 % of control and the T/C (dose: 16.0 mg/kg/injection, schedule: Q01DX007 (ip), vehicle: carboxymethylcellulose (CMC)) was 71 % of control. The T/C (dose: 32.0 mg/kg/injection, schedule: Q01DX007 (ip), vehicle: carboxymethylcellulose (CMC)) was 80 % of control.
For `CCCCCCCCCCCC1=C(O)C(=O)C(CC2=C(O)C(=O)C(CCCCCCCCCCC)=C(O)C2=O)=C(O)C1=O`, the T/C (dose: 7.5 mg/kg/injection, schedule: Q01DX007 (ip), vehicle: carboxymethylcellulose (CMC)) was 110 % of control, the T/C (dose: 15.0 mg/kg/injection, schedule: Q01DX007 (ip), vehicle: carboxymethylcellulose (CMC)) was 85 % of control and the T/C (dose: 30.0 mg/kg/injection, schedule: Q01DX007 (ip), vehicle: carboxymethylcellulose (CMC)) was 50 % of control. For the same compound, the T/C (dose: 60.0 mg/kg/injection, schedule: Q01DX007 (ip), vehicle: carboxymethylcellulose (CMC)) was 123 % of control.
In the case of `CC[C@@H](O)C[C@H]1CCC[C@@]2(C[C@@H]3OC(=O)/C=C/[C@@](C)(O)[C@@H](O)[C@H](C)[C@@H](O)[C@H](OC4CCC(N(C)C)C(C)O4)[C@@H](O)[C@](C)(O)CCCCC/C=C/[C@@H]4CC(C)(C)O[C@@]4(O)C[C@H](O2)[C@H]3C)O1` (some centres undefined), the T/C (dose: 0.15 mg/kg/injection, schedule: Q01DX007 (sc), vehicle: steriod suspending solution) is reported as 95 % of control, the T/C (dose: 0.23 mg/kg/injection, schedule: Q01DX007 (sc), vehicle: steriod suspending solution) is reported as 113 % of control and the T/C (dose: 0.34 mg/kg/injection, schedule: Q01DX007 (sc), vehicle: steriod suspending solution) is reported as 118 % of control.
With `O=C(CCN1CC1)OCCOC(=O)CCN1CC1` the T/C (dose: 4.0 mg/kg/injection, schedule: Q#A X014 (ip), vehicle: methylcellulose (MC)) was 44 % of control, the T/C (dose: 6.0 mg/kg/injection, schedule: Q#A X014 (ip), vehicle: methylcellulose (MC)) was 60 % of control and the T/C (dose: 9.0 mg/kg/injection, schedule: Q#A X014 (ip), vehicle: methylcellulose (MC)) was 50 % of control.
In the case of `CCCCn1cnc2c(SSc3ncnc4c3ncn4CCCC)ncnc21`, the T/C (dose: 53.0 mg/kg/injection, schedule: Q01DX007 (ip), vehicle: carboxymethylcellulose (CMC)) is reported as 82 % of control, the T/C (dose: 53.0 mg/kg/injection, schedule: Q01DX007 (ip), vehicle: other) is reported as 62 % of control and the T/C (dose: 83.0 mg/kg/injection, schedule: Q01DX007 (ip), vehicle: other) is reported as 65 % of control. For the same compound, the T/C (dose: 83.0 mg/kg/injection, schedule: Q01DX007 (ip), vehicle: saline) was 71 % of control, the T/C [1] was 50 % of control and the T/C [2] was 37 % of control. The T/C (dose: 187.0 mg/kg/injection, schedule: Q01DX007 (ip), vehicle: other) was 30 % of control.
With `c1ccc2c(c1)-c1cccc3c1c-2cc1ccccc13` the T/C (dose: 25.0 mg/kg/injection, schedule: Q01DX007 (ip), vehicle: other) was 53 % of control, the T/C (dose: 36.0 mg/kg/injection, schedule: Q01DX007 (ip), vehicle: other) was 36 % of control and 47 % of control and the T/C (dose: 55.0 mg/kg/injection, schedule: Q01DX007 (ip), vehicle: carboxymethylcellulose (CMC)) was 35 % of control. The T/C (dose: 55.0 mg/kg/injection, schedule: Q01DX007 (ip), vehicle: other) was 57 % of control, the T/C (dose: 82.5 mg/kg/injection, schedule: Q01DX007 (ip), vehicle: other) was 26 % of control and 42 % of control and the T/C [1] was 14 % of control.
With `CC1(c2ccccc2)O[C@@H]2C[C@H]3[C@@H]4CCC5=CC(=O)C=C[C@]5(C)[C@@]4(F)[C@@H](O)C[C@]3(C)[C@]2(C(=O)CO)O1` (some centres undefined) the T/C (dose: 1.2 mg/kg/injection, schedule: Q01DX007 (sc), vehicle: steriod suspending solution) was 72 % of control, the T/C (dose: 1.7 mg/kg/injection, schedule: Q#A X014 (sc), vehicle: steriod suspending solution) was 70 % of control and the T/C [3] was 70 % of control. The T/C (dose: 2.6 mg/kg/injection, schedule: Q#A X014 (sc), vehicle: steriod suspending solution) was 32 % of control, the T/C [4] was 52 % of control and the T/C (dose: 6.0 mg/kg/injection, schedule: Q01DX007 (sc), vehicle: steriod suspending solution) was 63 % of control. The T/C (dose: 39.0 mg/kg/injection, schedule: Q01DX007 (sc), vehicle: steriod suspending solution) was 28 % of control, the T/C (dose: 50.0 mg/kg/injection, schedule: Q01DX007 (sc), vehicle: steriod suspending solution) was 14 % of control and the T/C (dose: 60.0 mg/kg/injection, schedule: Q01DX007 (sc), vehicle: steriod suspending solution) was 33 % of control. For the same compound, the T/C (dose: 100.0 mg/kg/injection, schedule: Q01DX007 (sc), vehicle: steriod suspending solution) was 7 % of control.
For `O=C(NNC(=O)c1cccc2ccccc12)c1cc(Br)ccc1Br`, the T/C (dose: 222.0 mg/kg/injection, schedule: Q01DX007 (ip), vehicle: carboxymethylcellulose (CMC)) was 53 % of control, the T/C (dose: 333.0 mg/kg/injection, schedule: Q01DX007 (ip), vehicle: carboxymethylcellulose (CMC)) was 65 % of control and the T/C [5] was 26 % of control. For the same compound, the T/C (dose: 750.0 mg/kg/injection, schedule: Q01DX007 (ip), vehicle: carboxymethylcellulose (CMC)) was 37 % of control.
For `C[C@]12CCC(=O)C=C1[C@@H](F)C[C@@H]1[C@@H]2[C@@H](O)C[C@@]2(C)[C@H]1CC[C@]2(O)C(=O)CO`, the T/C (dose: 37.0 mg/kg/injection, schedule: Q01DX007 (sc), vehicle: steriod suspending solution) was 76 % of control, the T/C (dose: 56.0 mg/kg/injection, schedule: Q01DX007 (sc), vehicle: steriod suspending solution) was 89 % of control and the T/C (dose: 125.0 mg/kg/injection, schedule: Q01DX007 (sc), vehicle: steriod suspending solution) was 97 % of control. The T/C (dose: 126.0 mg/kg/injection, schedule: Q01DX007 (sc), vehicle: steriod suspending solution) was 33 % of control and the T/C (dose: 188.0 mg/kg/injection, schedule: Q01DX007 (sc), vehicle: steriod suspending solution) was 29 % of control.
`C#C[C@]1(OC(C)=O)CC[C@H]2[C@@H]3CC[C@H]4CC=CC[C@]4(C)[C@H]3CC[C@@]21C` was tested, and the T/C [3] was 84 % of control, the T/C [4] was 71 % of control and the T/C (dose: 10.0 mg/kg/injection, schedule: Q01DX007 (sc), vehicle: steriod suspending solution) was 102 % of control.
`COc1cc(C[C@H]2c3cc(OC)c(OC)cc3CCN2C)c(Oc2cc3c(cc2OC)-c2c(OC)c(OC)cc4c2[C@H](C3)N(C)CC4)cc1OC` was tested, and the T/C (dose: 7.8 mg/kg/injection, schedule: Q01DX007 (ip), vehicle: saline) was 96 % of control, the T/C (dose: 15.6 mg/kg/injection, schedule: Q01DX007 (ip), vehicle: saline) was 77 % of control and the T/C (dose: 31.3 mg/kg/injection, schedule: Q01DX007 (ip), vehicle: saline) was 78 % of control. For the same compound, the T/C (dose: 62.5 mg/kg/injection, schedule: Q01DX007 (ip), vehicle: saline) was 57 % of control and 68 % of control and the T/C [2] was 63 % of control.
In the case of `C(=N\N(c1ccccc1)c1ccccc1)/C(=C/c1ccccc1)c1ccccc1`, the T/C (dose: 125.0 mg/kg/injection, schedule: Q01DX007 (ip), vehicle: carboxymethylcellulose (CMC)) is reported as 85 % of control, the T/C (dose: 250.0 mg/kg/injection, schedule: Q01DX007 (ip), vehicle: carboxymethylcellulose (CMC)) is reported as 92 % of control and the T/C [5] is reported as 102 % of control.
